As usually defined, the CC50 is the concentration giving 50% cytotoxicity. Lower therefore signals harm at low concentration. Usually EC50 stands for the midpoint of the concentration-response curve.

The nature of data set [1]: NOVARTIS: Cytotoxicity against human hepatocellular carcinoma cell line (Huh7). Particulars: Huh7 cells (hepatocellular carcinoma cell line). The format is toxicity, cell-based, Huh-7.
The subject of data set [2] is Plasmodium falciparum. As to the kind of experiment: NOVARTIS: Inhibition of Plasmodium falciparum W2 (drug-resistant) proliferation in erythrocyte-based infection assay. It counts as functional, organism-based. Particulars: Plasmodium falciparum, W2; read-out: EC50.
Data set [3] deals with Plasmodium falciparum. Put plainly: NOVARTIS: Inhibition of Plasmodium falciparum 3D7 (drug-susceptible) proliferation in erythrocyte-based infection assay. Particulars: Plasmodium falciparum, 3D7. The format is functional, organism-based.

As for `O[C@@H](c1cc(C(F)(F)F)nc2c(C(F)(F)F)cccc12)[C@H]1CCCCN1`, in data set [1], the CC50 is greater than 6250 nM. The EC50 in data set [2] stood at 2.37 nM; in data set [3], 51.7 nM.
In the same order, the values of `CCOC(=O)c1cn(CC)c2cc(N(C)CCc3ccc(OC)c(OC)c3)c(F)cc2c1=O` are greater than 100000 nM, 26.7 nM and 103 nM.
In the same order, the values of `O=C(Cc1c(F)cccc1Cl)Nc1cc(C(=O)N2CCN(Cc3ccccc3)CC2)ccc1N1CC2CC(C1)c1cccc(=O)n1C2` (stereo not drawn) are greater than 100000 nM, 30 nM and 67.2 nM.
The like results for `CCOC(=O)C1=C(C)NC2=C(C(=O)CC(c3ccc(OC)cc3)C2)C1c1ccccc1F` (stereo not drawn) were, in that order, greater than 100000 nM, 27.1 nM and 74.1 nM.
`CCOC(=O)C1=C(C)NC2=C(C(=O)CC(c3ccc(OC)c(OC)c3)C2)C1c1ccccc1Br` (stereo not drawn) yielded a CC50 in data set [1] greater than 100000 nM. The EC50 was 26.7 nM in data set [2] and 73.2 nM in data set [3].
In data set [1], `COc1cc(C(=O)NC(C)C)ccc1OC1CCN(CC(c2ccccc2)c2ccccc2)CC1` returned a CC50 greater than 100000 nM. In addition, the EC50 was 23.6 nM in data set [2] and 74.3 nM in data set [3].
In the same order, the values of `CC(=O)c1ccc(NC(=O)CSc2nnc3c4c(-c5ccc(F)cc5)csc4ncn23)cc1` are greater than 100000 nM, 23.9 nM and greater than 12500 nM.
The like results for `COC(=O)C1=C(C)NC2=C(C(=O)CC(c3ccc(OC)c(OC)c3)C2)C1c1ccccc1C` (stereo not drawn) were, in that order, greater than 100000 nM, 31.7 nM and 125 nM.
`O=C(N=CNNc1ccccc1F)c1cc(OCC(F)(F)F)ccc1OCC(F)(F)F` had a CC50 in data set [1] greater than 10000 nM. Also, the EC50 in data set [2] was less than 3.13 nM; in data set [3], greater than 532 nM.
As for `CCC(C)OC(=O)C1=C(C)NC2=C(C(=O)CC(c3ccc(OC)cc3)C2)C1c1ccc(O)cc1` (stereo not drawn), the CC50 in data set [1] was greater than 100000 nM. The EC50 in data set [2] amounted to 31.2 nM; in data set [3], 500 nM.
In the same order, the values of `O=C(O)C(Cc1ccc([N+](=O)[O-])cc1)NS(=O)(=O)c1ccc(OC(F)(F)F)cc1` (stereo not drawn) are greater than 10000 nM, 3.29 nM and 580 nM.
In the same order, the values of `O=C(Nc1ccc2nc3n(c(=O)c2c1)CCCCC3)C(=O)N1CCN(c2ccccc2)CC1` are greater than 100000 nM, 30.8 nM and 133 nM.
In the same order, the values of `CCOC(=O)C1=C(C)NC2=C(C(=O)CC(c3ccc(OC)c(OC)c3)C2)C1c1cccc(Cl)c1Cl` (stereo not drawn) are greater than 100000 nM, 30.5 nM and 32.9 nM.
Molecule `CCCCNCCN1CCN(c2ccc3ccccc3c2)C[C@@H]1c1ccccc1` returned a CC50 in data set [1] of 8160 nM. The EC50 in data set [2] was determined as 2.45 nM; in data set [3], 34.5 nM.
The like results for `COc1ccc(C2CC(=O)C3=C(C2)NC(C)=C(C(=O)OC(C)C)C3c2cccc(C)c2)cc1OC` (stereo not drawn) were, in that order, 54800 nM, 19.1 nM and 82.1 nM.
Regarding `COc1ccc(C2CC(=O)C3=C(C2)NC(C)=C(C(=O)OC2CCCC2)C3c2ccc(Cl)cc2Cl)cc1` (stereo not drawn), the cytotoxic concentration (CC50) in data set [1] is greater than 100000 nM. In addition, the EC50 amounted to 34.7 nM in data set [2] and 126 nM in data set [3].
In the same order, the values of `COc1ccc(C2CC(=O)C3=C(C2)NC(C)=C(C(=O)OC2CCCC2)C3c2ccccc2)cc1` (stereo not drawn) are greater than 100000 nM, 33.5 nM and 124 nM.
In the same order, the values of `COCCOC(=O)C1=C(C)NC2=C(C(=O)CC(c3ccc(OC)cc3)C2)C1c1ccc(Cl)cc1` (stereo not drawn) are greater than 100000 nM, 33.2 nM and 167 nM.
The like results for `O=C(NCCCCCCNC(=O)Nc1ccc(C2=NCCCN2)cc1)Nc1ccc(C2=NCCCN2)cc1` were, in that order, greater than 10000 nM, less than 3.28 nM and 108 nM.
The molecule `COCCOC(=O)C1=C(C)NC2=C(C(=O)CC(c3ccc(OC)c(OC)c3)C2)C1c1ccccc1C` (stereo not drawn) returned a CC50 in data set [1] greater than 100000 nM. For the same molecule, the figures for the EC50 in data set [2] and in data set [3] were 32.3 nM and 110 nM, respectively.
In the same order, the values of `Cc1cc(C(=O)N2CCOc3c(cc(-c4csc5ccccc45)cc3OCCc3ccccn3)C2)n(C)n1` are 46900 nM, 13.9 nM and 32.5 nM.
The like results for `COC(=O)c1c(-c2c(Cl)cccc2Cl)noc1/C=C/Nc1ccc(Cl)cc1` were, in that order, greater than 10000 nM, less than 2.95 nM and 13.5 nM.
In the same order, the values of `COc1ccc(C2CC(=O)C3=C(C2)NC(C)=C(C(=O)OC(C)C)C3c2ccccc2Br)cc1` (stereo not drawn) are greater than 100000 nM, 28.5 nM and 62 nM.
For `CCOC(=O)C1=C(C)NC2=C(C(=O)CC(c3ccc(OC)c(OC)c3)C2)C1c1ccccc1C` (stereo not drawn), in data set [1], the CC50 was greater than 100000 nM. Further, the EC50 in data set [2] was 27.4 nM; in data set [3] it was 134 nM.
The like results for `Cc1ccc(-c2c3c(nc4sc(C(=O)Nc5ccc(F)cc5)c(N)c24)CCC3)cc1` were, in that order, greater than 100000 nM, 27.2 nM and 68.8 nM.
In the same order, the values of `Cc1cc(C)nc(/N=C(\N)Nc2ccccc2O)n1` are greater than 100000 nM, 36.2 nM and 379 nM.
In data set [1], `Oc1ccc(-c2ccc(F)cc2)cc1CNC1CCCCC1` registered a CC50 of 17400 nM. Also, the EC50 in data set [2] came out at 6.28 nM; in data set [3], 40.2 nM.
Consider `CCOC(=O)c1ccc2c(c1)[C@@H]1C=CC[C@@H]1[C@H](c1cccc(OC)c1OC)N2`, for which the CC50 in data set [1] is greater than 100000 nM. For the same molecule, the EC50 in data set [2] was 31.8 nM; in data set [3] it was 471 nM.
The like results for `CC1=C(C(=O)OC(C)C)C(c2ccccc2F)C2=C(CC(c3ccc(Cl)cc3)CC2=O)N1` (stereo not drawn) were, in that order, greater than 100000 nM, 35.1 nM and 109 nM.
In the same order, the values of `COCCOC(=O)C1=C(C)NC2=C(C(=O)CC(c3ccc(OC)c(OC)c3)C2)C1c1ccc(F)cc1` (stereo not drawn) are 46800 nM, 17.7 nM and 38.2 nM.
With `N#Cc1c2c(c(N3CCN(Cc4ccc(F)cc4)CC3)n3c1nc1ccccc13)CCC2`, in data set [1], the CC50 was greater than 100000 nM. The EC50 turned out to be 37.7 nM in data set [2] and 19.8 nM in data set [3].
In the same order, the values of `CCOC(=O)C(=O)N1c2ccc(C)cc2-c2c(ssc2=S)C1(C)C` are greater than 100000 nM, 37.7 nM and 46.5 nM.
The like results for `CCOc1ccc(NC(=O)C2c3ccccc3C(=O)N(CC(C)C)C2c2cccs2)cc1` (stereo not drawn) were, in that order, greater than 100000 nM, 36.7 nM and 78.3 nM.
In the same order, the values of `O[Si](CCCN1CCCCC1)(c1ccccc1)C1CCCCC1` (stereo not drawn) are 33000 nM, 12.1 nM and 23.6 nM.
As for `COc1ccc(C2CC(=O)C3=C(C2)NC(C)=C(C(=O)OC2CCCC2)C3c2ccc(SC)cc2)cc1OC` (stereo not drawn), the CC50 in data set [1] was greater than 100000 nM. The EC50 was 36.5 nM in data set [2] and 249 nM in data set [3].
The like results for `CCOC(=O)C(=O)N1c2ccc(OCC)cc2-c2c(ssc2=S)C1(C)C` were, in that order, greater than 100000 nM, 25.2 nM and 252 nM.
Take `CC(CCc1ccccc1)NCC(O)c1cccc([N+](=O)[O-])c1` (stereo not drawn): in data set [1], the midpoint of cytotoxicity, the CC50, lay at 42500 nM. Besides, the EC50 in data set [2] came out at 14.5 nM; in data set [3], 205 nM.
Consider `COC(=O)C1=C(C)NC2=C(C(=O)CC(c3ccc(OC)c(OC)c3)C2)C1c1ccccc1F` (stereo not drawn), for which the CC50 in data set [1] is greater than 100000 nM. For the same molecule, the results for the EC50 in data set [2] and in data set [3] were 30.6 nM and 50.5 nM, respectively.
In the same order, the values of `O=[N+]([O-])c1ccc(S(=O)(=O)N2CCN(C(=S)NCc3ccccc3)CC2)cc1` are greater than 100000 nM, 38 nM and 79.6 nM.
For the molecule `CC1CCC2C(C)C(O)OC3OC4(C)CCC1C32OO4` (stereo not drawn), the CC50 in data set [1] is greater than 10000 nM. Further, the EC50 worked out at 3.31 nM in data set [2] and 7.05 nM in data set [3].
Molecule `Cn1c2c([n+](C)c1CCl)C(=O)c1ccccc1C2=O` returned a CC50 in data set [1] greater than 10000 nM. Moreover, the half-maximal effective concentration (EC50) in data set [2] is 3.55 nM; in data set [3], 3.1 nM.
The like results for `CCCOC(=O)C1=C(C)NC2=C(C(=O)CC(c3ccc(OC)cc3)C2)C1c1cccc(Cl)c1Cl` (stereo not drawn) were, in that order, greater than 100000 nM, 30.8 nM and 233 nM.
In the same order, the values of `COc1ccc(OC)c(-c2ccc(O)c(CNCC3(N4CCCCC4)CCCCC3)c2)c1` are 38000 nM, 11.3 nM and 43.7 nM.
In the same order, the values of `CN(c1ccc(Br)cc1)S(=O)(=O)c1ccc2[nH]cc(C(=O)N3CCN(c4ccccc4)CC3)c(=O)c2c1` are greater than 10000 nM, less than 2.83 nM and greater than 1250 nM.
`Oc1ccc(-c2ccc3c(c2)OCO3)cc1CNCC1(N2CCCCC2)CCCCC1` registered a CC50 in data set [1] greater than 100000 nM. Besides, the EC50 in data set [2] worked out at 35.4 nM; in data set [3], 291 nM.
In the same order, the values of `COc1cccc(-c2ccc(O)c(CNCC3CCCCC3)c2)n1` are 46600 nM, 17.7 nM and 58.5 nM.
In the same order, the values of `CCOC(=O)C1=C(C)NC2=C(C(=O)CC(c3ccc(OC)c(OC)c3)C2)C1c1ccccc1F` (stereo not drawn) are greater than 100000 nM, 26.4 nM and 27.6 nM.
In the same order, the values of `COc1ccc(C2CC(=O)C3=C(C2)NC(C)=C(C(=O)OC(C)C)C3c2ccc([N+](=O)[O-])cc2)cc1OC` (stereo not drawn) are greater than 100000 nM, 31.8 nM and 31.9 nM.
In data set [1], `CCOC(=O)C1=C(C)NC2=C(C(=O)CC(c3ccccc3)C2)C1c1ccccc1Cl` (stereo not drawn) registered a CC50 greater than 100000 nM. Moreover, the EC50 in data set [2] was 34.9 nM; in data set [3], 251 nM.
The like results for `COc1ccc(C2CC(=O)C3=C(C2)NC(C)=C(C(=O)OC(C)C)C3c2ccccc2Br)cc1OC` (stereo not drawn) were, in that order, 23300 nM, 7.84 nM and 13.7 nM.
In the same order, the values of `CCCOC(=O)C1=C(C)NC2=C(C(=O)CC(c3ccc(OC)cc3)C2)C1c1cccc(F)c1` (stereo not drawn) are greater than 100000 nM, 32.9 nM and 72.4 nM.

The record behind these values is ChEMBL document CHEMBL1156829 (Proc Natl Acad Sci U S A, 2008).
